# Where a SMILES comes first, the peptide text is derived from it. The star is where a group is joined. Cbz = O=C(OCc1ccccc1)*
# B1: rhGal8: recombinant human galectin-8 (R&D Systems 1305-GA-050) (protein, UniProt O00214 1-317, looked up)
# Galectin-8: MMLSLNNLQNIIYNPVIPFVGTIPDQLDPGTLIVIRGHVPSDADRFQVDLQNGSSMKPRADVAFHFNPRFKRAGCIVCNTLINEKWGREEITYDTPFKREKSFEIVIMVLKDKFQVAVNGKHTLLYGHRIGPEKIDTLGIYGKVNIHSIGFSFSSDLQSTQASSLELTEISRENVPKSGTPQLRLPFAARLNTPMGPGRTVVVKGEVNANAKSFNVDLLAGKSKDIALHLNPRLNIKAFVRNSFLQESWGEEERNITSFPFSPGMYFEMIIYCDVREFKVAVNGVHSLEYKHRFKELSSIDTLEINGDIHLLEVRSW
# Assays:
# [1] = test system: Cluster 15 (C15) genes incl. LGALS8; test: RT-qPCR of Cluster 15 gene expression in PAECs; assay type: cell-based, human; details: PAECs + IL-1β; for IL-1β-induced expression changes in Cluster 15 members SLC9A3R1, LGALS3: 500 nM
# Method: (§1) Human recombinant galectin-8 (1305-GA-050) was purchased from R&D Systems and was used at a working concentration of 30 nM.
# RT-qPCR analysis: Cells were lysis in 1 ml of QiaZol reagent (Qiagen). Total RNA content was extracted using the RNeasy kit (Qiagen), according to the manufacturer's instructions. Total RNA concentration was determined using a BioTek Synergy multimode plate reader. Messenger RNAs were reverse transcribed to generate cDNA using the Multiscript RT kit (Thermo Fisher Scientific). cDNA for specific gene targets was amplified and quantified via fluorescently-labeled Taqman primer sets and Taqman fast advanced master mix (Thermo Fisher Scientific) using an Applied Biosystems QuantStudio 6 Flex Real-Time PCR System.
# [2] = test system: PAECs; test: Mitochondrial superoxide by MitoSOX Red flow cytometry in PAECs; assay type: cell-based, human
# From the text: (§2) Cell culture: Primary human pulmonary artery endothelial cells (PAECs) and human pulmonary artery smooth muscle cells (PASMCs) were purchased from Lonza (302-05A, CC-2581). Of note, the same two male donors were the source of all PAECs in the experiments shown. Two additional male donors were the source for all PASMCs in the experiments shown. Cells from these and any donors were characterized by flow cytometry for consistent expression of cell surface markers and by RNA (RT-qPCR) analysis of endothelial and smooth muscle gene expression. PAECs were cultured in EGM-2 media (CC-3121) along with supplements (CC-4133), and PASMCs were cultured in SmGM-2 culture media (Lonza, CC-3182) at 5% CO2 in a humidified incubator.
# as §1
# (§3) For hypoxia exposure, cells were plated in 6-well cell culture plates at 1×10^5 cells/well, grown for 24 hr and placed into a normobaric hypoxia chamber (1% O2) for 24 h under specific treatment conditions. Namely, for I-BET and siLGALS8 exposures, cells were either pre-treated with I-BET/vehicle control (VC) or transfected with siLgals8/Scr for 24 h. Then, they were cultured in basal media at 1% 02. After 24 h, caspase activity and mitochondrial superoxide levels were quantified. To detect activation status of pSTAT1/STAT1 by immunoblot, cells were exposed to 8 h of hypoxia.
# Flow cytometry detection of mitochondrial superoxide: For measuring mitochondrial superoxide, cells were incubated with 5 μM of MitoSOX Red mitochondrial superoxide indicator (Thermo Fisher Scientific) for 10 min in 37° C. CO2 incubator. Next, cells were washed with 1×PBS, trypsinized, and fluorescence (488 nm/580 nm) was measured on flow analyzer (BD LSR FORTESSA or BD LSRII) using BD […] software.
# [3] = test system: PAECs; test: Apoptosis by caspase-3/7 activity in PAECs; assay type: cell-based, human
# From the text: as §2, §1, §3
# (§4) In IL-6/sIL-6R+hypoxia experiments, a human recombinant IL-6/IL-6R alpha protein chimera (25 ng/ml, Millipore) was administered at 70-80% confluency for 48 h in complete media along with vehicle control (DMSO, Sigma-41639). BRD2889 (1 uM) vs. vehicle control were added, as indicated, and placed into a hypoxia chamber for 24 h. The hypoxia chamber (modular incubator chamber) was obtained from Billups-Rothenberg Inc. (Del Mar, Calif) and placed in regulated CO2 incubator at 37° C.
# Cellular apoptosis: Caspase-3/7 activity was quantified using the Caspase-Glo 3/7 Assay (Promega), according to manufacturer's instructions. Caspase-3/7 activity was normalized to total protein content determined by BCA method (Thermo Fisher Scientific).
# [4] = test system: LGALS8; test: Immunoblot and densitometry of LGALS8 isoforms in PAECs; assay type: cell-based, human; details: PAECs + IL-1β
# Method: as §1
# (§5) Immunoblot and densitometry: Cells were lysed in RIPA buffer (Sigma) along with 1× protease inhibitor cocktail (Sigma). Protein lysate was resolved by gradient 4%-15% SDS-PAGE gels and transferred onto a 0.2 μm PVDF membrane (Bio-Rad). Membranes were blocked in 5% non-fat milk in 1×PBST buffer for one hour at room temperature. Later, they were incubated in the presence of the primary antibody overnight at 4° C. and then appropriate HRP-conjugated secondary antibodies (Life Technologies). The following antibodies were used: human LGALS8 (AF1305, RnD Systems), mouse/rat Lgals8 (ab69631, Abcam), pSTAT1 (ab29045, Abcam) and STAT1 (ab47425, Abcam), GSTP1 (ab153949, Abcam), ISCU (14812-1-AP, Prointech), Glutathione (ab19534, Abcam), HIF2A (NB100-122, Novous), α-Tubulin (CP06, Millipore sigma), and ACTB (sc-47778, Santa Cruz). The immunoreactive bands were visualized with the Chemidoc XRS+system (Bio-Rad) using SuperSignal West Femto chemiluminescent substrates (Thermo Fisher Scientific). The images were later quantified using AlphaEaseFC software (Alpha Innotech).
# [5] = test system: PAECs; test: Global transcriptome microarray in PAECs; assay type: cell-based, human; details: IL-1β +/- I-BET762, microarray
# From the text: The gene expression was normalized with Robust Multiarray Analysis (RMA). For BRD2889, the same approach was employed using Affymetrix Clariom S array on RNA isolated from PAECs treated with BRD2889 or vehicle and subjected to either hypoxia or normoxia. Differentially expressed genes were defined as any gene for which the FDR adjusted p-value was below 0.05 (n=3/grp). Reversed genes were further defined as those genes that were differentially expressed in both (hypoxia versus normoxia) and in (hypoxia+BRD2889 versus hypoxia)+vehicle as well as were regulated in opposite directions. Similarly, for I-BET that were differentially expressed in IL-1β+VC versus control and IL-1β+I-BET versus IL-1β+VC and were regulated in opposite directions. The data for both I-BET and BRD2889 have been submitted to the NCBI Gene Expression Omnibus with accession numbers GSE125508 and GSE160255, respectively.
# [6] = test system: Cluster 15 (C15) genes; test: RT-qPCR of Cluster 15 gene expression in PASMCs; assay type: cell-based, human; details: PASMCs + IL-1β
# From the text: as §2, §1
# RT-qPCR analysis: Cells were lysis in 1 ml of QiaZol reagent (Qiagen). […] Total RNA concentration was determined using a BioTek Synergy multimode plate reader. Messenger RNAs were reverse transcribed to generate cDNA using the Multiscript RT kit (Thermo Fisher Scientific). cDNA for specific gene targets was amplified and quantified via fluorescently-labeled Taqman primer sets and Taqman fast advanced master mix (Thermo Fisher Scientific) using an Applied Biosystems QuantStudio 6 Flex Real-Time PCR System.
# [7] = test system: SU5416-hypoxic pulmonary arterial hypertension rats; test: SU5416-hypoxia pulmonary arterial hypertension rat model; assay type: in vivo, Sprague-Dawley rats
# Method: Briefly, 10 week old male Sprague-Dawley rats were injected i.p. with 20 mg/kg of SU5416 (Sigma), placed in normobaric hypoxia (10% O2) for 3 weeks and then transferred to normoxia for 2 weeks. During hypoxic exposure, chambers were opened twice a week for cleaning and replenishment of food and water. […] For BRD2889 vs. vehicle control dosing, i.p. injections every 5 days (5 mg/kg) were administered during the final two weeks of normoxia. Oxygen concentrations were continuously monitored with blood gas analyzers.
# Following euthanasia, right ventricle/[left ventricle+septum]
# Measurement of GST activity: The GST activity from lung tissue and PAECs was assayed using GST assay kit (Cayman, MI, USA) per the manufacturer's instructions.
# Rodent echocardiography: Echocardiography was performed using a 15-45 MHz transthoracic transducer and a Visual Sonics Vevo 3100 system (Fujifilm). Inhaled isoflurane anesthesia was used at 2% in 100% O2 during positioning and hair removal and then decreased to isoflurane 0.8% during imaging.
# [8] = test system: chronically hypoxic mice; test: Hypoxia-induced pulmonary hypertension mouse model
# From the text: Animal models: For the hypoxia-induced pulmonary hypertension mice, male C57BL/6J mice (8 weeks old) (RRID:IMSR_JAX:000664) were purchased from Jackson laboratory and acclimatized for 3-4 days in this facility. Subsequently, mice scheduled for normoxic vs. hypoxic exposure were maintained in either normoxia or a normobaric hypoxia chamber for 1 or 3 weeks (OxyCycler, Biospherix Ltd.), where consistent exposure to 10% oxygen and control for temperature and humidity were possible. For testing the activity of I-BET in hypoxia-induced pulmonary hypertension mice, three experimental groups—normoxia+VC (vehicle control), hypoxia+VC (vehicle control), and hypoxia+I-BET were used.
# I-BET was dissolved in DMSO at 100× concentration and then made into a working solution in 20% PEG400 and 80% 1×PBS. BRD2889 was made into a working solution of 2.5% DMSO.
# Male and female 8 week old Lgals8−/− mice were exposed to hypoxia for 3 weeks. Littermates were used as wildtype (WT) control when comparing with knockout mice.
# Immunofluorescent staining: Cryostat sections were cut from OCT-embedded lung tissues at 5-10 μm and mounted on gelatin-coated histological slides. Slides were thawed at room temperature for 10-20 min and rehydrated in wash buffer for 10 minutes. All sections were blocked in 10% donkey serum and exposed to primary antibody and Alexa 488, 568 and 647-conjugated secondary antibodies (Thermo Fisher Scientific). The following primary antibodies were used: Lgals8 (Ab69631, Abcam; 1/200), IL-1β (ab9722, Abcam; 1/200), GSTP1 (ab153949, Abcam; 1:100), ISCU (14812-1-AP, Proteintech; 1:100), cleaved caspase 3 (cs-9661, Cell Signaling; 1/400), α-SMA (F3777, Sigma; 1/200) and CD31 (ab7388, Abcam; 1/200). Images were obtained using Nikon A1 confocal microscope with 40× objective. Small pulmonary vessels (10 vessels/section) that were not associated with bronchial airways were selected for analysis. Intensity of staining was quantified using ImageJ software (NIH). Degree of pulmonary arteriolar muscularization was assessed in OCT lung sections stained for α-SMA by calculation of the proportion of fully and partially muscularized peripheral (<100 μm diameter) pulmonary arteriole to total peripheral pulmonary arterioles (Bertero T et al. J Clin Invest. 2014, 124, 3514-3528).
# [9] = test system: ISCU; test: Immunoblot of ISCU and GSTP1 in PAECs; assay type: cell-based, human; details: hypoxic PAECs, MG132 5 mM, 2 h
# Method: as §3, §4
# (§6) Protein stability assay: The proteasome inhibitor MG132 (M7449, Sigma) was stored at −20° C. at a concentration of 10 mM diluted in dimethyl sulfoxide (DMSO). PAECs were exposed to MG132 ([…]) vs. DMSO vehicle control for 2 hr under hypoxia, prior to harvesting of cellular lysate for immunoblotting.
# as §5
# [10] = test system: glutathionylated ISCU; test: ISCU glutathionylation by immunoprecipitation and immunoblot in PAECs; assay type: cell-based, human; details: hypoxic PAECs, MG132 5 mM, 2 h
# Method: as §6
# Immunoblot and densitometry: Cells were lysed in RIPA buffer (Sigma) along with 1× protease inhibitor cocktail (Sigma). Protein lysate was resolved by gradient 4%-15% SDS-PAGE gels and transferred onto a 0.2 μm PVDF membrane (Bio-Rad). Membranes were blocked in 5% non-fat milk in 1×PBST buffer for one hour at room temperature. Later, they were incubated in the presence of the primary antibody overnight at 4° C. and then appropriate HRP-conjugated secondary antibodies (Life Technologies). […] The images were later quantified using AlphaEaseFC software (Alpha Innotech).
# Immunoprecipitation: PAECs were transfected with the indicated combinations of siRNAs by Lipofectamine 2000 (Thermo Fisher Scientific) according to the manufacturer's instructions and/or treated with BRD2889 ([…], 24 h). […] After extensive washing, the immunoprecipitated proteins were analyzed by immunoblotting with the indicated antibodies.
# [11] = molecular target: glutathione S-transferase pi 1 (GSTP1) (Homo sapiens, UniProt P09211); details: literature report; cited from earlier work
# Chain of glutathione S-transferase pi 1 (GSTP1) (P09211 whole entry, species assumed): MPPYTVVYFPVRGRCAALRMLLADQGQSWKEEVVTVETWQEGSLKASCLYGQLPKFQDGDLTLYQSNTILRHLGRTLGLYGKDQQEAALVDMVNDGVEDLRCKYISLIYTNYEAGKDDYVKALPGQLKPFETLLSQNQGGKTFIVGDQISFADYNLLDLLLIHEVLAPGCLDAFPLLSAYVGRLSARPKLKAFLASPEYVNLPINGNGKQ
# [12] = test system: normal, non-transformed cells; liver and kidney; details: literature report; cited from earlier work
# [13] = PAECs + IL-1β 10 ng/ml 48 h, I-BET762 500 nM vs vehicle
# [14] = PAECs, hypoxia 1% O2 24 h, I-BET pre-treatment
# [15] = I-BET762 30 mg/kg i.p. daily, Days 21-35
# [16] = I-BET762 30 mg/kg daily oral gavage, chronic hypoxia
# [17] = IL-1β-exposed (48 h) PAECs treated with I-BET and rhGal8 (24 h)
# [18] = PAECs, rhGal8 alone (30 nM, 24 h)
molecule,measurement,setting,value
COc1cc2c(cc1-c1c(C)noc1C)ncc1[nH]c(=O)n([C@H](C)c3ccccn3)c12 [I-BET151],"IL-1β-induced expression changes in Cluster 15 members SLC9A3R1, LGALS3",[1],reversed
CCNC(=O)C[C@@H]1N=C(c2ccc(Cl)cc2)c2cc(OC)ccc2-n2c(C)nnc21 [I-BET762],mitochondrial superoxide (O2-) levels,[2]; [13],reduced the IL-1β-dependent increase
same,mitochondrial superoxide levels,[2]; [14],reversed the hypoxia-induced increases
same,apoptosis (caspase-3/7 activity),[3]; [13],reduced the IL-1β-dependent increase
same,apoptosis (caspase-3/7 activity),[3]; [14],reversed the hypoxia-induced increases
same,LGALS8-L transcript,[1],reversed
same,LGALS8-M transcript,[1],not altered
same,"IL-1β-induced expression changes in Cluster 15 members SLC9A3R1, LGALS3",[1],reversed
same,"expression of C15 genes LGALS3, LGALS8, ABCC4, CD47, SLC9A3R1, DAG1",[1]; I-BET762 500 nM,reversed
same,"extent of reversal of C15 genes LGALS3, LGALS8, DAG1, SLC9A3R1",[1]; I-BET762 500 nM,near complete reversal
same,LGALS8-L protein (immunoblot),[4],reversed the IL-1β-induced increase of the L isoform
same,number of genes altered by IL-1β vs vehicle and reversed by drug,[5],524 genes
same,alteration and reversal of C15 genes including LGALS8,[6],not observed
same,LGALS8 in pulmonary arterioles (immunofluorescence),[7]; [15],decreased
same,arteriolar muscularization,[7]; [15],reduced
same,cleaved caspase-3 (CC-3) in pulmonary arterioles,[7]; [15],decreased
same,right ventricular systolic pressure (RVSP),[7]; [15],reduced
same,"left ventricular function (LVPW thickness, LVEF, LVFS; echocardiography)",[7]; I-BET762 vs vehicle,did not exhibit altered left ventricular function
same,heart rate,[8]; [16],without significant effect
same,"pulmonary vascular LGALS8, including in endothelial cells",[8]; [16],robustly decreased
same,pulmonary vascular muscularization (α-SMA stain),[8]; [16],reduced
same,right ventricular systolic pressure (RVSP),[8]; [16],reduced
same,downstream apoptosis (cleaved caspase-3),"[8]; hypoxic mice, most notable at early stage (1 week hypoxia)",reduced downstream apoptosis
same,LGALS8 in normoxic mice,"[8]; normoxic mice, similar dosing, mean±SEM, vehicle 1±0.02, p=NS",1.08±0.03 fold change
"CC(C)C[C@@H](C=O)NC(=O)[C@H](CC(C)C)NC(=O)[C@H](CC(C)C)NC(=O)OCc1ccccc1 [MG132, reference compound] (Cbz-Leu-Leu-Leu-aldehyde)",ISCU protein,[9],reversed the hypoxic down-regulation
same,GSTP1 or ISCU glutathionylation,[10],without affecting
"COc1cc(/C=C/C(=O)N2CCC=CC2=O)cc(OC)c1OC [piperlongumine, reference compound]",inhibition of GSTP1,[11],reported to inhibit
same,"toxicity to normal, non-transformed cells",[12],minimal toxicity
B1,I-BET-induced attenuation of IL-1β-specific mitochondrial superoxide,[2]; [17],reduced the ability of I-BET to decrease
same,mitochondrial superoxide,[2]; [18],no effect
same,I-BET-induced attenuation of IL-1β-specific apoptosis (caspase 3/7),[3]; [17],reduced the ability of I-BET to decrease
same,apoptosis (caspase 3/7 activity),[3]; [18],no effect
